Patent US20100267561A1, “HERBICIDAL PYRIDAZINONE DERIVATIVES” (priority 2007, published 2010)

Columns and labels:
Assay type in all cases: in vivo
[1] = test system: Russian thistle (Salsola iberica); experiment: Test B pre-/postemergence plant response; conditions: Preemergence
How it was run: (§1)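 Preemergence and postemergence (plants 2-18 cm, 1- to 4-leaf stage) applications used test chemicals in a non-phytotoxic solvent with surfactant. Plants were held in a greenhouse 13 to 15 days, then rated visually against controls on a 0-100 scale (0 no effect, 100 complete control).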

[2] = test system: bermudagrass (Cynodon dactylon); experiment: Test B pre-/postemergence plant response
How it was run: as §1

[3] = test system: cocklebur (Xanthium strumarium); experiment: Test B pre-/postemergence plant response
How it was run: as §1

[4] = test system: common (oilseed) sunflower (Helianthus annuus); experiment: Test B pre-/postemergence plant response; conditions: Preemergence
How it was run: as §1

[5] = test system: common ragweed (Ambrosia elation); experiment: Test B pre-/postemergence plant response
How it was run: as §1

[6] = test system: corn (Zea mays); experiment: Test B pre-/postemergence plant response
How it was run: as §1

[7] = test system: goosegrass (Eleusine indica); experiment: Test B pre-/postemergence plant response
How it was run: as §1

[8] = test system: kochia (Kochia scoparia); experiment: Test B pre-/postemergence plant response; conditions: Postemergence
How it was run: as §1

[9] = test system: lambsquarters (Chenopodium album); experiment: Test B pre-/postemergence plant response; conditions: Postemergence
How it was run: as §1

[10] = test system: large crabgrass (Digitaria sanguinalis); experiment: Test B pre-/postemergence plant response
How it was run: as §1

[11] = test system: soybean (Glycine max); experiment: Test B pre-/postemergence plant response
How it was run: as §1

[12] = test system: surinam grass (Brachiaria decumbens); experiment: Test B pre-/postemergence plant response
How it was run: as §1

[13] = test system: wheat (Triticum aestivum); experiment: Test B pre-/postemergence plant response
How it was run: as §1

[14] = test system: ducksalad (Heteranthera limosa); experiment: Test B flooded paddy test plant response
How it was run: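 Compounds were added directly to paddy water over 2-leaf-stage plants in pots flooded 3 cm above soil, water depth maintained. Visual injury scored against controls after 13 to 15 days in greenhouse, 0 (none) to 100 (complete control); dash indicates no result.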

[15] = 31 g ai/ha, 0 to 100 scale, 0 no effect, 100 complete control
[16] = Postemergence, 31 g ai/ha, scale 0 to 100, 0 no effect, 100 complete control
[17] = Postemergence, 62 g ai/ha, scale 0 to 100
[18] = Postemergence, 125 g ai/ha, scale 0 to 100
[19] = Postemergence, 250 g ai/ha, scale 0 to 100
[20] = Preemergence, 31 g ai/ha, 0 to 100 scale, 0 no effect, 100 complete control
[21] = Preemergence, 62 g ai/ha, scale 0 to 100
[22] = Preemergence, 125 g ai/ha, scale 0 to 100
[23] = Preemergence, 250 g ai/ha, scale 0 to 100
[24] = 31 g ai/ha, scale 0 to 100, 0 no effect, 100 complete control

CCc1cc(-c2ccc(C(F)(F)F)cc2)nn1-c1c(O)c(C)nn(C)c1=O [Compound 16]
Plant response rating, Russian Thistle [1, 15]: 0
Plant response rating, Russian Thistle ([1]; 62 g ai/ha, scale 0 to 100): 0
Plant response rating, Russian Thistle ([1]; 125 g ai/ha, scale 0 to 100): 0
Plant response rating, Russian Thistle ([1]; 250 g ai/ha, scale 0 to 100): 0
Bermudagrass plant response rating ([2]; 250 g ai/ha, preemergence, 0-100 scale): 100
Plant response rating, Bermudagrass [2, 16]: 65
Plant response rating, Bermudagrass [2, 17]: 100
Plant response rating, Bermudagrass [2, 18]: 100
Plant response rating, Bermudagrass [2, 19]: 100
Plant response rating, Bermudagrass [2, 20]: 0
Plant response rating, Bermudagrass [2, 21]: 0
Plant response rating, Bermudagrass [2, 22]: 98
Plant response rating, Cocklebur [3, 16]: 0
Plant response rating, Cocklebur [3, 17]: 0
Plant response rating, Cocklebur [3, 18]: 0
Plant response rating, Cocklebur [3, 19]: 0
Plant response rating, Cocklebur [3, 20]: 0
Plant response rating, Cocklebur [3, 21]: 0
Plant response rating, Cocklebur [3, 22]: 0
Plant response rating, Cocklebur [3, 23]: 0
Plant response rating, Sunflower [4, 15]: 0
Plant response rating, Sunflower ([4]; 62 g ai/ha, scale 0 to 100): 0
Plant response rating, Sunflower ([4]; 125 g ai/ha, scale 0 to 100): 0
Plant response rating, Sunflower ([4]; 250 g ai/ha, scale 0 to 100): 0
Plant response rating, Ragweed [5, 16]: 0
Plant response rating, Ragweed [5, 17]: 0
Plant response rating, Ragweed [5, 18]: 0
Plant response rating, Ragweed [5, 19]: 0
Plant response rating, Ragweed [5, 20]: 0
Plant response rating, Ragweed [5, 21]: 0
Plant response rating, Ragweed [5, 22]: 0
Plant response rating, Ragweed [5, 23]: 0
Plant response rating, Corn [6, 16]: 98
Plant response rating, Corn [6, 17]: 98
Plant response rating, Corn [6, 18]: 100
Plant response rating, Corn [6, 19]: 100
Plant response rating, Corn [6, 20]: 0
Plant response rating, Corn [6, 21]: 100
Plant response rating, Corn [6, 22]: 100
Plant response rating, Corn [6, 23]: 100
Plant response rating, Goosegrass [7, 16]: 60
Plant response rating, Goosegrass [7, 17]: 65
Plant response rating, Goosegrass [7, 18]: 75
Plant response rating, Goosegrass [7, 19]: 80
Plant response rating, Goosegrass [7, 20]: 0
Plant response rating, Goosegrass [7, 21]: 0
Plant response rating, Goosegrass [7, 22]: 50
Plant response rating, Goosegrass [7, 23]: 60
Plant response rating, Kochia [8, 24]: 0
Plant response rating, Kochia ([8]; 62 g ai/ha, scale 0 to 100): 65
Plant response rating, Kochia ([8]; 125 g ai/ha, scale 0 to 100): 98
Plant response rating, Kochia ([8]; 250 g ai/ha, scale 0 to 100): 100
Plant response rating, Lambsquarters [9, 24]: 0
Plant response rating, Lambsquarters ([9]; 62 g ai/ha, scale 0 to 100): 0
Plant response rating, Lambsquarters ([9]; 125 g ai/ha, scale 0 to 100): 0
Plant response rating, Lambsquarters ([9]; 250 g ai/ha, scale 0 to 100): 0
Plant response rating, Crabgrass, Large [10, 16]: 95
Plant response rating, Crabgrass, Large [10, 17]: 95
Plant response rating, Crabgrass, Large [10, 18]: 100
Plant response rating, Crabgrass, Large [10, 19]: 100
Plant response rating, Crabgrass, Large [10, 20]: 0
Plant response rating, Crabgrass, Large [10, 21]: 0
Plant response rating, Crabgrass, Large [10, 22]: 20
Plant response rating, Crabgrass, Large [10, 23]: 40
Plant response rating, Soybean [11, 16]: 0
Plant response rating, Soybean [11, 17]: 0
Plant response rating, Soybean [11, 18]: 0
Plant response rating, Soybean [11, 19]: 0
Plant response rating, Soybean [11, 23]: 0
Plant response rating, Surinam Grass [12, 16]: 90
Plant response rating, Surinam Grass [12, 17]: 100
Plant response rating, Surinam Grass [12, 18]: 100
Plant response rating, Surinam Grass [12, 19]: 100
Plant response rating, Surinam Grass [12, 20]: 45
Plant response rating, Surinam Grass [12, 21]: 55
Plant response rating, Surinam Grass [12, 22]: 95
Plant response rating, Surinam Grass [12, 23]: 100
Plant response rating, Wheat [13, 16]: 95
Plant response rating, Wheat [13, 17]: 98
Plant response rating, Wheat [13, 18]: 100
Plant response rating, Wheat [13, 19]: 100
Plant response rating, Wheat [13, 20]: 15
Plant response rating, Wheat [13, 21]: 90
Plant response rating, Wheat [13, 22]: 98
Plant response rating, Wheat [13, 23]: 100
Plant response rating, Ducksalad ([14]; Flood (flooded paddy test), 62 g ai/ha, scale 0 to 100, 0 no effect, 100 complete control): 0
Plant response rating, Ducksalad ([14]; Flood (flooded paddy test), 125 g ai/ha, scale 0 to 100, 0 no effect, 100 complete control): 0
Plant response rating, Ducksalad ([14]; Flood (flooded paddy test), 250 g ai/ha, scale 0 to 100, 0 no effect, 100 complete control): 0
Plant response rating, Ducksalad ([14]; Flood, 31 g ai/ha, scale 0 to 100): 0
